# Assay results from US20240009174A1, “METHODS FOR DISRUPTING MITOCHONDRIAL UNFOLDED PROTEIN RESPONSE” (Health Research, Inc., priority 2020, published 2024).
# System: LNCaP and PC-3 cells
# Test: DEVDase (caspase) activity in cell lysates
# Assay type: cell-based
# Details: 24 and 48 hours
# Description: FIG. 6. Pharmacological inhibition of HSP60-ClpP interaction induces UPR^mt and PCa cell death. (A) Docking of DCEM1 into apical domain of HSP60. (B) LNCaP and PC-3 cells were treated with DCEM1 for 24 hours and HSP60-ClpP interaction was analyzed by co-immunoprecipitation assay. (C) LNCaP and PC-3 cells were treated with DCEM1 for 24 hours and mitoROS levels were analyzed by flow cytometry using mitoSOX dye. (D) LNCaP and PC-3 cells were treated with DCEM1 for 24 hours and poly-Ub protein levels were analyzed by western blotting. (E) LNCaP and PC-3 cells were treated with DCEM1 for 24 and 48 hours and apoptotic cell populations were analyzed by flow cytometry using Annexin V FITC/PI method as explained in materials and methods. […] (F) LNCaP and PC-3 cells were treated with DCEM1 for 24 and 48 hours and lysates were prepared and analyzed for DEVDase activity using specific peptide substrate. […] (G) LNCaP and PC-3 cells were pre-treated with SKQ1 followed by DCEM1 treatment and analyzed for cell viability by MTT assay. (H) LNCaP and PC-3 cells were treated with either DCEM1 or H2O2 (200 μM) for 24 hours and total DNA were isolated and analyzed for mtDNA damage as described in materials and methods.
# FIG. 7. […] (C) ClpP protein was over-expressed in LNCaP and PC-3 cells followed by DCEM1 treatment and level of poly-ubiquitinated protein was analyzed by western blotting. […]
smiles,measurement,value
CCOc1cc(CNCc2nc3ccccc3[nH]2)ccc1OCc1cccs1 [DCEM1],caspase (DEVDase) activity,robust caspase activity
